Columns and labels:
[1] = biological target: CYP158A1 (Streptomyces coelicolor, UniProt Q9KZF5, K90I); test: UV-vis difference spectral titration; assay type: binding
[2] = biological target: CYP158A1 (Streptomyces coelicolor, UniProt Q9KZF5); test: UV-vis difference spectral titration; assay type: binding
CYP158A1 (Streptomyces coelicolor, UniProt Q9KZF5), sequence (Q9KZF5 whole entry): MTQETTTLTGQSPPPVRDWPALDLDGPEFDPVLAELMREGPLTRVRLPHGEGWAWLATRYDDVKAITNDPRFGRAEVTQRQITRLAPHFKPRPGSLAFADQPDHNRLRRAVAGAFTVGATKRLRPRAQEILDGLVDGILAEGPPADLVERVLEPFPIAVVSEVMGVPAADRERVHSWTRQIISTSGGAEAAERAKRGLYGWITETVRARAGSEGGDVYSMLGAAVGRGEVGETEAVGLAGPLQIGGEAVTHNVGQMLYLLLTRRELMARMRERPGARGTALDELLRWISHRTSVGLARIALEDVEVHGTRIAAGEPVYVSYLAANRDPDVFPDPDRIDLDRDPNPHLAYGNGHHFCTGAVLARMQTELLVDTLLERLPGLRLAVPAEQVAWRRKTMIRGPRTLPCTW

CYP158A1 (Streptomyces coelicolor, UniProt Q9KZF5, K90I), sequence (Q9KZF5 whole entry K90I): as the sequence (Q9KZF5 whole entry) above, with K90I counted along it

Kd [1]: 16.9 µM
Kd [2]: 10.5 µM
Structure (SMILES): O=C1C(O)=CC(=O)c2c(O)cc(O)cc21 [flaviolin]
